Laboratory results published in patent publication US9125388B2, “Biological control” (Isis Innovation Limited, priority 1999, dated 2015).

How the values were obtained:
[1] = system: bnk-tTa × tRe-Nipp1Dm; test: Tc-repressible lethality using an embryo-specific promoter (Table 2), adult progeny by sex; format: in vivo, Drosophila melanogaster; conditions: embryos laid on this food for 9 days
Excerpt: Flies were reared on standard yeast/cornmeal/agar food with a yeast concentration of 45-50 gl^−1. Tc-containing food was made to the same recipe with the addition of tetracycline hydrochloride (Sigma-Aldrich) solution to the appropriate final concentration.
As ectopic Ras64B^V12 apparently lacks embryonic toxicity under the conditions we are using, we placed a different toxic gene under the control of tRe. We chose to use Nipp1Dm, a Drosophila homolog of mammalian NIPP-1, a nuclear inhibitor of protein phosphatase type 1 (Beullens et al., (1992), J. Biol. Chem. 267, 16538-16544; Van Eynde et al., (1995), J Biol Chem 270, 28068-74). NIPP1 has several advantages as a “killer gene” in this system. Flies carrying homozygous insertions of bnk-tTa or tRe-Nipp1 were crossed to each other. […] Furthermore, F1 survival was not affected by the presence or absence of Tc in the media on which the F1 were raised. We have therefore constructed an efficient dominant lethal genetic system repressible by parental dietary Tc.
Males homozygous for bnk-tTa were mated with females homozygous for either tRe-Ras64B^V12 or tRe-Nipp1Dm. These flies were raised on media lacking Tc, but before mating were placed on food containing various concentrations of Tc. They were allowed to lay embryos on this food for 9 days, and then the parents were removed. Their adult progeny of each sex were counted.

[2] = system: (Male) Sxlp^e tTa^(A) tRe lacZ^(I) × C(1)DX (Female); test: Reporter crosses at 25° C., embryos stained for lacZ; format: in vivo, Drosophila melanogaster
Excerpt: As with “single chromosome crosses”, ten to fifteen virgin females homozygous for the tTA construct and five to ten young males homozygous for the tRe construct were placed on food containing or lacking a tetracycline supplement.
C(1)DX is a compound X chromosome; effectively two X chromosomes joined together. The X chromosome from males crossed to C(1)DX females is therefore inherited by the sons, rather than the daughters.

[3] = system: (Male) Sxlp^e tTa^(A) × tRe lacZ^(III) (Female); test: as above
[4] = parents on food containing Tc 0.1 μg/ml
[5] = parents on food containing Tc 1.0 μg/ml

CN(C)[C@@H]1C(O)=C(C(N)=O)C(=O)[C@@]2(O)C(O)=C3C(=O)c4c(O)cccc4[C@@](C)(O)[C@H]3C[C@@H]12 [Tetracycline, tetracycline]
Females, adult progeny [1, 4]: 58 | Males, adult progeny [1, 4]: 60 | Females, adult progeny [1, 5]: 82 | Males, adult progeny [1, 5]: 78 | LacZ negative Total ([2]; Tetracycline 0.1 μg/ml in food): 708 | LacZ positive Total ([2]; Tetracycline 0.1 μg/ml in food): 0 | LacZ negative Total ([2]; Tetracycline 1 μg/ml in food): 737 | LacZ positive Total ([2]; Tetracycline 1 μg/ml in food): 0 | LacZ negative Total ([2]; Tetracycline 5 μg/ml in food): 683 | LacZ positive Total ([2]; Tetracycline 5 μg/ml in food): 0 | LacZ negative Total ([3]; Tetracycline 0.1 μg/ml in food): 518 | LacZ positive Total ([3]; Tetracycline 0.1 μg/ml in food): 0 | LacZ negative Total ([3]; Tetracycline 1 μg/ml in food): 707 | LacZ positive Total ([3]; Tetracycline 1 μg/ml in food): 0 | LacZ negative Total ([3]; Tetracycline 5 μg/ml in food): 702 | LacZ positive Total ([3]; Tetracycline 5 μg/ml in food): 0
